Columns and labels:
[1] = system: hMSCs; assay: Outgrowth of hMSCs on beads in hydrogels made with a single MMP degradable crosslinker; type: cell-based, human; conditions: versus control, non-degradable crosslinker
Protocol: (§1) Cytodex1 microcarrier beads (Sigma) were swollen in sterile IX PBS (1 g beads/50 mL PBS) and autoclaved for 30 minute at 121° C. Flasks were coated with poly (2-hydroxyethy methacrylate) suspended in ethanol at 20 mg/mL and allowed to evaporate in a biosafety cabinet for 1 hour to make they non-adherent. hMSCs were seeded at 10-50 cells/bead in non-adherent flasks at a 0.1 mL of beads/mL of media. The flask was shaken every 1 hour for 4 hours to ensure coating unto beads. Cells were allowed to grow on beads for 72 hours before seeding into hydrogels. Breast cancer cells were suspended in 4° C., poly(N-isopropylacryamide)-poly(ethylene glycol) (pNIPAAM-PEG, Cosmo Bio) reconstituted in cell culture medium at a density of 167,000 cells/mL of MDA-MB-231s. Gelation occurred after 5 min at 37° C., and gels were swollen in cell culture medium and grown into spheroids for 14 days. pNIPAAm gels were dissolved in cold serum-free DMEM (1% pen/strep) and spheroids transferred to conical tubes placed in ice so that spheroids would settle to the bottom. The supernatant was removed and the spheroids were re-suspended in PEG-maleimide solution. A ratio of 9 3D hydrogels were made for every 150 μL of pNIPAAM-PEG. Hydrogels were prepared with 4-arm PEG-maleimide at a 20 wt % cross-linked at a 1:1 molar ratio with 50% 1.5 K linear PEG-dithiol and 50% of each individual MMP degradable peptide sequence (FIGS. 13A-13C). Gels were imaged at days 1 and 3 and all image analysis was performed in ImageJ (National Institutes of Health).

[2] = system: MDA-MB-231 cells; assay: MDA-MB-231 spheroid growth in hydrogels with one MMP degradable crosslinker; type: cell-based, human; conditions: spheroid size ratio
Protocol: as §1, with “Gels were imaged at days 1 and 3 and all image analysis was performed in ImageJ (National Institutes of Health).” left out

[3] = system: chick arotic cells; conditions: cited from earlier work
[4] = system: hMSCs; assay: Competitive binding assay: adhesion of hMSCs pre-treated with soluble peptides to a surface with the bone marrow peptide cocktail; type: cell-based, human; conditions: 30 minutes pretreatment; glass surface with bone marrow integrin-binding peptide cocktail; three donor hMSCs and hTERT MSCs; 2 hours
Protocol: Cells were seeded at 4000 cells per cm^2 in their normal growth medium after 30 minutes of pretreatment with individual peptides or the complete bone marrow cocktail. Bone marrow was dosed at a molar amount of […] of medium and the molar amount dosed for each peptide was as follows: GRGDSPCG (SEQ ID NO:8)at 600 pmol/mL, CGPHSRNGGGGGGRGDS (SEQ ID NO:14), and […] (SEQ ID NO:18) at 220 pmol/mL, CGP(GPP)5GFOGER(GPP)5 (SEQ ID NO:15), CGGSVVYGLR (SEQ ID NO:13), and GPRGGC (SEQ ID NO:2)at 160 pmol/mL, CSVTCG (SEQ ID NO:4) and […] (SEQ ID NO:5) at 100 pmol/mL, GCGDGEA (SEQ ID NO:1), CSRARKQAASIKVAVADR (SEQ ID NO:3), GCKQLREQ (SEQ ID NO:6), and CGGAEIDGIEL (SEQ ID NO:16) at 60 pmol/mL, and GCDPGYIGSR (SEQ ID NO:7) at 40 pmol/mL. Cells were imaged cells beginning 10 minutes after seeding in an environment controlled Zeiss Axio Observer Z1 microscope (Carl Zeiss) using an AxioCam MRm camera and an EC Plan-Neofluar 20× 0.4 NA air objective. Images were taken using Zen (Carl Zeiss) at five-minute intervals for 2 hours and cell areas were traced in ImageJ (National Institutes of Health).

[5] = system: myofibroblasts; conditions: cited from earlier work

Substance | hMSC cell branching into hydrogel (maximum branch length per bead) [1] | degradation of crosslinked gel by MDA-MB-231 spheroids [2] | ability of MMP peptide to degrade [3] | cell adhesion (cell area) after pre-treatment with soluble peptide [4] | ability of MMP peptide to degrade [5]
GCRDSGESPAYYTADRCG [MMP-2 crosslinker, di-functional MMP degradable crosslinker peptide designed for MMP 2 (Gelatinase A)] | No significant hMSC cell branching | again not with the MMP 2 and 3 peptides | ability for these MMP peptides to degrade has been shown | – | –
CGGAEIDGIEL [tenascin C] | – | – | – | not significantly bound | –
GCRDRPFSMIMGDRCG [MMP-3 crosslinker, di-functional MMP degradable crosslinker peptide designed for MMP 3 (Stromelysin-1)] | No significant hMSC cell branching | again not with the MMP 2 and 3 peptides | – | – | ability for these MMP peptides to degrade has been shown
CGP(GPP)5GFOGER(GPP)5 (CGPGPPGPPGPPGPPGPPGFGERGPPGPPGPPGPPGPP) [collagen I] | – | – | – | not significantly bound | –
GCRDGPLGLWARDRCG [MMP-13 crosslinker, di-functional MMP degradable crosslinker peptide designed for MMP 13 (Collagenase-3)] | No significant hMSC cell branching | degradation in the MMP-13 crosslinked gel was observed | – | – | –
